≈ marks a conversion by molar mass, not a printed value. Like-named read-outs stand apart in the source and are kept apart here.
Columns and labels:
[1] = molecular target: T1, Class D beta-lactamase OXA 23 (A. baumannii NCTC 13301) (Acinetobacter baumannii, UniProt Q9L4P2); experiment: Beta-lactamase enzyme inhibition (Nitrocefin, crude enzyme); assay type: biochemical; conditions: A. baumannii NCTC 13301 (OXA 23)
T1 construct: preincubated mixture of crude enzyme and the compounds; endogenous in cells; host or cells: A. baumannii NCTC 13301
Protocol: (§1) Absorbance was measured at 485 nm by UV-spectrophotometer. The IC50 was calculated by plotting absorbance against concentration through Sigmoidal dose response curve using Graph Pad software.
(§2) The enzyme inhibition was expressed as IC50.

[2] = system: Class C beta-lactamase CMY/DHA (E. coli M50); experiment: as above; assay type: biochemical
Protocol: as §1, §2

[3] = molecular target: T2, Class A beta-lactamase SHV 18 (K. pneumoniae ATCC 700603) (Klebsiella pneumoniae, UniProt P0AD64, E235K/G234A/I4F/R39S); experiment: as above; assay type: biochemical; conditions: Beta-lactamase enzyme inhibition IC50, Class A, K. pneumoniae ATCC 700603 (SHV 18)
T2 sequence (P0AD64 1-286 I4F/R39S/G234A/E235K): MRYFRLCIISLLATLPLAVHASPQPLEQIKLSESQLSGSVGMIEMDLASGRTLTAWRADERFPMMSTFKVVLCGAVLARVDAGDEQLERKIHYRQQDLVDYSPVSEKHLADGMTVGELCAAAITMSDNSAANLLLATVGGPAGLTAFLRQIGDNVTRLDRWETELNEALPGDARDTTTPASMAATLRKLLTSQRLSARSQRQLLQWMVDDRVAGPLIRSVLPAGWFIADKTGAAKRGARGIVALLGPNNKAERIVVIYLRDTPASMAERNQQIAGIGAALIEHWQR
Protocol: as §1, §2

[4] = system: K. pneumoniae S48 (NDM, SHV, TEM); experiment: Antibacterial activity (MIC), agar dilution per CLSI; assay type: cell-based; conditions: Klebsiella pneumoniae
Protocol: (§3) The biological activity of representative compounds according to the invention against various bacterial strains was investigated. In a typical study, overnight grown bacterial cultures were diluted appropriately and inoculated on the agar media containing doubling dilutions of the test compounds. Observations for growth or no growth was performed after 16-20 hours of incubation at 35±2° C. in the ambient air. The overall procedure was performed as per Clinical and Laboratory Standards Institute (CLSI) recommendations, (Clinical and Laboratory Standards Institute (CLSI), Performance Standards for Antimicrobial Susceptibility Testing, 20th Informational Supplement, M07-A9, Volume 32, No. 2, 2012). Molten Mueller Hinton Agar (BD, USA) containing serial dilutions of each antibacterial agent were poured on to the plates and allowed to solidify. Appropriate suspensions from the freshly grown cultures were prepared in normal saline so that about 10^4 CFU/spot of the organism was delivered on to the drug containing agar plates using automated multipoint inoculator (Mast, UK). The plates were incubated in Biochemical oxygen demand (BOD) incubator at 37° C. for 18 hours and then examined for growth.
(§4) The strains selected for study included E. coli NCTC 13353 producing CTX-M15 and OXA-1 beta-lactamase enzymes; K. pneumoniae H521 producing KPC, SHV, TEM beta-lactamase enzymes; and K. pneumoniae S48 producing NDM, SHV, TEM beta-lactamase enzymes. The activities are expressed as Minimum Inhibitory Concentrations (MICs) (mcg/ml).

[5] = system: E. coli NCTC 13353 (CTX-M15, OXA-1); experiment: as above; assay type: cell-based; conditions: Escherichia coli
Protocol: as §3, §4
(§5) The activities are expressed as Minimum Inhibitory Concentrations (MICs) (mcg/ml).

[6] = system: K. pneumoniae H521 (KPC, SHV, TEM); experiment: as above; assay type: cell-based; conditions: Klebsiella pneumoniae
Protocol: as §3, §4, §5

E. coli M50 = experiment: Zone of inhibition, agar well, with and without ceftazidime; assay type: cell-based; conditions: for Diameter of Zone of Inhibition, Compound + Ceftazidime (10 μg/ml): E. coli M50; for zone of inhibition at 0.25 µg/disc / zone of inhibition at 0.5 µg/disc / zone of inhibition at 1 µg/disc: Escherichia coli, M50, read-out: Diameter of Zone of Inhibition, Compound
Protocol: (§6) In a typical experiment, two sets of plates containing growth media (Molten Mueller Hilton Agar) and bacterial strains were prepared. One set of plates was taken as control (without ceftazidime) and other set contained ceftazidime. The media was allowed to solidify and wells were punched later, into which varying concentrations of compounds according to the invention were poured. A two-fold serial dilution range of each of the compounds according to invention was prepared and 50 μl of each of the dilution was added into the punched well. The plates were then incubated at 37° C. for 18 hours in BOD incubator and diameters of zone of inhibition were measured after the completion of the incubation.
(§7) The Table 6 provides the antibacterial activity of the combination comprising compounds according to invention and ceftazidime. The compounds according to invention were tested at 0.12, 0.25, 0.5 and 1 μg/well.

E. coli NCTC 13353 = experiment: as above; assay type: cell-based; conditions: for Diameter of Zone of Inhibition, Compound + Ceftazidime (10 μg/ml): E. coli NCTC 13353; for zone of inhibition at 0.25 µg/disc / zone of inhibition at 0.5 µg/disc / zone of inhibition at 1 µg/disc: Escherichia coli, NCTC13353, read-out: Diameter of Zone of Inhibition, Compound
Protocol: as §6, §7

[7] = molecular target: Class D beta-lactamase OXA 26 (A. baumannii NCTC 13303) (Acinetobacter baumannii, UniProt Q9F0V2); experiment: Beta-lactamase enzyme inhibition (Nitrocefin, crude enzyme); assay type: biochemical; conditions: read-out: Beta-lactamase enzyme inhibition IC50, A. baumannii NCTC 13303 (OXA 26)
Protocol: as §1

[8] = Class D, read-out: Beta-lactamase enzyme inhibition IC50
[9] = NCTC13353, E. coli NCTC 13353 (CTX-M15, OXA-1), read-out: MIC
[10] = K. pneumoniae H521 (KPC, SHV, TEM), read-out: MIC
[11] = compound 0.25 μg/well + Ceftazidime 10 μg/ml
[12] = compound 0.5 μg/well + Ceftazidime 10 μg/ml
[13] = compound 1 μg/well + Ceftazidime 10 μg/ml
[14] = compound […] + Ceftazidime 10 μg/ml
[15] = Beta-lactamase enzyme inhibition IC50, Class D

T1 sequence (Q9L4P2 18-273): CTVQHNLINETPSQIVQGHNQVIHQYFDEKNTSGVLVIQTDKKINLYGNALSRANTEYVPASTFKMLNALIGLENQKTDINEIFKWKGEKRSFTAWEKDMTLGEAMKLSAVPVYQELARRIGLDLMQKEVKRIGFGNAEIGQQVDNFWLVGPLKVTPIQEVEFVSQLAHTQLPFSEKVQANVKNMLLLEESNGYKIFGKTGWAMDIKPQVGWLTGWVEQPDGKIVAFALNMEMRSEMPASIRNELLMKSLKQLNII
Sequence of Class D beta-lactamase OXA 26 (A. baumannii NCTC 13303) (Q9F0V2 entry or part of it): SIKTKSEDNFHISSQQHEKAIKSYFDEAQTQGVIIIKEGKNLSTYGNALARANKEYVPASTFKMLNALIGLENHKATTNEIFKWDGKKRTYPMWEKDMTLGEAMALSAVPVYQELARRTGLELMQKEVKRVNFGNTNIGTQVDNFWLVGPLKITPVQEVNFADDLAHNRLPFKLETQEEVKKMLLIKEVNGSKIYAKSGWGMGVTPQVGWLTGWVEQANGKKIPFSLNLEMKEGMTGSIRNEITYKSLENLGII

Structure (SMILES): O=C(CC1CNCCN1)NNC(=O)[C@@H]1CC[C@@H]2CN1C(=O)N2OS(=O)(=O)O (mixture of isomers) [Example 7, (2S,5R)-sulfuric acid mono-{2-[N′-(2-(RS)-piperazin-2-yl-acetyl)-hydrazinocarbonyl]-7-oxo-1,6-diaza-bicyclo[3.2.1]oct-6-yl}ester]
- IC50 [1, 8]: 2840 nM
- IC50 [2]: 70 nM
- IC50 [3]: 67 nM
- MIC [4]: 2 µg/mL
- MIC [5, 9]: 2 µg/mL
- MIC [6, 10]: 4 µg/mL

Structure (SMILES): C[C@@H](O)[C@H]1C(=O)N2C(C(=O)O)=C(SCCN=CN)C[C@H]12 [Imipenem, imipenem, reference compound]
- MIC [5, 9]: 0.25 µg/mL (≈ 0.835 µM)

Structure (SMILES): O=C(C[C@H]1CCCCN1)NNC(=O)[C@@H]1CC[C@@H]2CN1C(=O)N2OS(=O)(=O)O [Example 4, (2S,5R)-sulfuric acid mono-{2-[N′-(2-(R)-piperidin-2-yl-acetyl)-hydrazinocarbonyl]-7-oxo-1,6-diaza-bicyclo[3.2.1]oct-6-yl}ester]
- IC50 [1, 8]: 2930 nM
- IC50 [2]: 56 nM
- IC50 [3]: 170 nM
- MIC [4]: 2 µg/mL (≈ 4.93 µM)
- MIC ([5]; NCTC13353): 2 µg/mL (≈ 4.93 µM)
- MIC [6]: 4 µg/mL (≈ 9.87 µM)

Structure (SMILES): O=C(C[C@@H]1CCCCN1)NNC(=O)[C@@H]1CC[C@@H]2CN1C(=O)N2OS(=O)(=O)O [Example 3, (2S,5R)-sulfuric acid mono-{2-[N′-(2-(S)-piperidin-2-yl-acetyl)-hydrazinocarbonyl]-7-oxo-1,6-diaza-bicyclo[3.2.1]oct-6-yl}ester]
- IC50 [1, 8]: 2110 nM
- IC50 [2]: 52 nM
- IC50 [3]: 74 nM
- MIC [4]: 0.5 µg/mL (≈ 1.23 µM)
- MIC ([5]; NCTC13353): 0.25 µg/mL (≈ 0.617 µM)
- MIC [6]: 0.5 µg/mL (≈ 1.23 µM)
- Diameter of Zone of Inhibition, Compound + Ceftazidime (10 μg/ml) (E. coli M50; [11]): 17.5 mm
- Diameter of Zone of Inhibition, Compound + Ceftazidime (10 μg/ml) (E. coli M50; [12]): 20 mm
- Diameter of Zone of Inhibition, Compound + Ceftazidime (10 μg/ml) (E. coli M50; [13]): 22.5 mm
- Diameter of Zone of Inhibition, Compound + Ceftazidime (10 μg/ml) (E. coli M50; [14]): 14.5 mm
- zone of inhibition at 0.25 µg/disc (E. coli M50): 13 mm
- zone of inhibition at 0.5 µg/disc (E. coli M50): 16 mm
- zone of inhibition at 1 µg/disc (E. coli M50): 17 mm
- Diameter of Zone of Inhibition, Compound + Ceftazidime (10 μg/ml) (E. coli NCTC 13353; [11]): 22 mm
- Diameter of Zone of Inhibition, Compound + Ceftazidime (10 μg/ml) (E. coli NCTC 13353; [12]): 27 mm
- Diameter of Zone of Inhibition, Compound + Ceftazidime (10 μg/ml) (E. coli NCTC 13353; [13]): 30 mm
- Diameter of Zone of Inhibition, Compound + Ceftazidime (10 μg/ml) (E. coli NCTC 13353; [14]): 20 mm
- zone of inhibition at 0.25 µg/disc (E. coli NCTC 13353): 14 mm
- zone of inhibition at 0.5 µg/disc (E. coli NCTC 13353): 15 mm
- zone of inhibition at 1 µg/disc (E. coli NCTC 13353): 17 mm

Structure (SMILES): O=C(CC1CNC1)NNC(=O)[C@@H]1CC[C@@H]2CN1C(=O)N2OS(=O)(=O)O [Example 2, (2S,5R)-sulfuric acid mono-{2-[N′-(2-azetidin-3-yl-acetyl)-hydrazinocarbonyl]-7-oxo-1,6-diaza-bicyclo[3.2.1]oct-6-yl}ester]
- IC50 [1, 15]: 6190 nM
- IC50 [2]: 103 nM
- IC50 [3]: 97 nM
- MIC [4]: 2 µg/mL (≈ 5.3 µM)
- MIC ([5]; NCTC13353): 1 µg/mL (≈ 2.65 µM)
- MIC [6]: 4 µg/mL (≈ 10.6 µM)
- Diameter of Zone of Inhibition, Compound + Ceftazidime (10 μg/ml) (E. coli M50; [11]): 19 mm
- Diameter of Zone of Inhibition, Compound + Ceftazidime (10 μg/ml) (E. coli M50; [12]): 22 mm
- Diameter of Zone of Inhibition, Compound + Ceftazidime (10 μg/ml) (E. coli M50; [13]): 23.5 mm
- Diameter of Zone of Inhibition, Compound + Ceftazidime (10 μg/ml) (E. coli M50; [14]): 15 mm
- zone of inhibition at 0.25 µg/disc (E. coli M50): 9 mm
- zone of inhibition at 0.5 µg/disc (E. coli M50): 12 mm
- zone of inhibition at 1 µg/disc (E. coli M50): 15 mm
- Diameter of Zone of Inhibition, Compound + Ceftazidime (10 μg/ml) (E. coli NCTC 13353; [11]): 24 mm
- Diameter of Zone of Inhibition, Compound + Ceftazidime (10 μg/ml) (E. coli NCTC 13353; [12]): 26 mm
- Diameter of Zone of Inhibition, Compound + Ceftazidime (10 μg/ml) (E. coli NCTC 13353; [13]): 30 mm
- Diameter of Zone of Inhibition, Compound + Ceftazidime (10 μg/ml) (E. coli NCTC 13353; [14]): 21 mm
- zone of inhibition at 0.25 µg/disc (E. coli NCTC 13353): 10 mm
- zone of inhibition at 0.5 µg/disc (E. coli NCTC 13353): 13 mm
- zone of inhibition at 1 µg/disc (E. coli NCTC 13353): 15 mm

Structure (SMILES): O=C(O)[C@H]1/C(=C/CO)O[C@@H]2CC(=O)N21 [Clavulanic acid, clavulanic acid, reference compound]
- IC50 [1, 15]: > 10000 nM
- IC50 [7]: > 10000 nM

Structure (SMILES): O=C(CC1CCNCC1)NNC(=O)[C@@H]1CC[C@@H]2CN1C(=O)N2OS(=O)(=O)O [Example 6, (2S,5R)-sulfuric acid mono-{2-[N′-(2-piperidin-4-yl-acetyl)-hydrazinocarbonyl]-7-oxo-1,6-diaza-bicyclo[3.2.1]oct-6-yl}ester]
- IC50 [1, 8]: 1620 nM
- IC50 [2]: 37 nM
- IC50 [3]: 60 nM
- MIC [4]: 1 µg/mL (≈ 2.47 µM)
- MIC ([5]; NCTC13353): 0.5 µg/mL (≈ 1.23 µM)
- MIC [6]: 2 µg/mL (≈ 4.93 µM)

Structure (SMILES): CC(C)(O/N=C(\C(=O)N[C@@H]1C(=O)N2C(C(=O)[O-])=C(C[n+]3ccccc3)CS[C@H]12)c1csc(N)n1)C(=O)O [Ceftazidime, ceftazidime, reference compound]
- MIC ([4]; K. pneomoniae S48 (NDM, SHV, TEM), read-out: MIC): > 32 µg/mL
- MIC [5, 9]: 32 µg/mL (≈ 58.5 µM)
- MIC [6, 10]: > 32 µg/mL

Structure (SMILES): O=C(C[C@@H]1CCCNC1)NNC(=O)[C@@H]1CC[C@@H]2CN1C(=O)N2OS(=O)(=O)O [Example 5, (2S,5R)-sulfuric acid mono-{2-[N′-(2-(S)-piperidin-3-yl-acetyl)-hydrazinocarbonyl]-7-oxo-1,6-diaza-bicyclo[3.2.1]oct-6-yl}ester]
- IC50 [1, 8]: 1730 nM
- IC50 [3]: 160 nM
- MIC ([4]; 18 h): 1 µg/mL (≈ 2.47 µM)
- MIC ([5]; NCTC13353, 18 h): 0.5 µg/mL (≈ 1.23 µM)
- MIC ([6]; 18 h): 4 µg/mL (≈ 9.87 µM)
